{"source": "paper PMC10584170", "about": "“Machine learning-based phenotypic imaging to characterise the targetable biology of Plasmodium falciparum male gametocytes for the development of transmission-blocking antimalarials” (PLOS Pathogens, 2023)", "key": {"[1]": {"tested_on": "P. falciparum female gametocytes", "experiment": "P. falciparum Dual Gamete Formation Assay (PfDGFA), female readout (Pfs25-positive female gametes)", "assay_type": "cell-based, Plasmodium falciparum NF54", "settings": "for Average inhibition female (%): average of replicates; for % inhibition female (individual replicates) R1: replicate R1; for % inhibition female (individual replicates) R3: replicate R3; for % inhibition female (individual replicates) R4: replicate R4", "method": "(§1) P. falciparum NF54 (originally isolated from an imported malaria case in the Netherlands in the 1980s; BEI Resources, cat. No. MRA-1000) strain asexual parasites were maintained between 0.3–5% parasitaemia by regular passage in complete culture medium (RPMI supplemented with 25 mM HEPES, 50 μg ml^−1 hypoxanthine, 4.8 g l^−1 NaHCO3, 2mM L-glutamine, 5% pooled type AB serum, 0.5% Albumax II (Gibco)) at 4% haematocrit in washed whole blood (National Blood and Transfusion Service or Centro de Transfusiones de la Comunidad de Madrid CTCM) under a 1% O2/3% CO2/96% N2 environment. Gametocytes were induced by seeding culture flasks at 2% parasitaemia/4% haematocrit and subjecting them to daily medium changes for 14 days whilst maintaining a temperature of 37°C at all times. On Day 14, the maturity of gametocytes was assessed by quantifying male gametogenesis (exflagellation). A 20 μl sample of gametocyte culture was mixed with equal volume of ookinete medium (complete culture medium supplemented with 0.1 μM xanthurenic acid) at room temperature and transferred to a haemocytometer. After 20 min at room temperature, exflagellation was accurately quantified as described in Delves et al. 2016 [17].\n(§2) The Pf DGFA was performed as described in Delves et al. 2016 [17]. […] Plates were then incubated for 24 h at 37°C in a humidified box under a 1% O2/3% CO2/96% N2 gas mix. Gametogenesis was triggered by addition of 10 μl per well of ookinete medium + 0.27 μg ml^-1 Cy3-labelled anti-Pfs25 antibody. Plates were incubated on a metal block at 4°C for 4 min to ensure even cooling, then 28°C for a further 4 min. Exflagellation was recorded by capturing 10 frames over 1 s under brightfield illumination using a x4 objective with a 1.5x zoom (effectively x6) attached to an automated Nikon Ti fluorescence microscope. After recording exflagellation, plates were incubated for a further 24 h in the dark at 28°C to ensure maximal expression of Pfs25 by female gametes. The plates were then returned to the microscope and female gametes imaged at x6 using fluorescence microscopy.\n(§3) Exflagellation centres and female gametes were quantified using custom image analysis pipelines developed within ICY Bioimage Analysis (https://icy.bioimageanalysis.org/)."}, "[2]": {"tested_on": "P. falciparum male gametocytes", "experiment": "P. falciparum Dual Gamete Formation Assay (PfDGFA), male readout (exflagellation)", "assay_type": "cell-based, Plasmodium falciparum NF54", "settings": "for Average inhibition male (%): average of replicates; for % inhibition male (individual replicates) R1: replicate R1; for % inhibition male (individual replicates) R3: replicate R3; for % inhibition male (individual replicates) R4: replicate R4; for Activity: hit = >50% inhibition in male or female readout in at least 3 replicates, 0 = no class assigned", "method": "as §1, §2, §3"}, "[3]": {"settings": "2µM, 24h preincubation with gametocytes prior to induction of gametogenesis"}, "[4]": {"settings": "2µM, 24h preincubation, number of replicates with >50% inhibition in the female readout"}, "[5]": {"settings": "2µM, 24h preincubation, number of replicates with >50% inhibition in the male readout"}, "[6]": {"settings": "PfDGFA at 2µM, 24h preincubation with gametocytes prior to induction of gametogenesis"}, "[7]": {"settings": "PfDGFA at 2µM, 24h preincubation"}, "[8]": {"settings": "2µM, 24h preincubation, hits selected on >50% inhibition in the female readout across replicates"}, "[9]": {"settings": "2µM, 24h preincubation, hits selected on >50% inhibition in the male readout across replicates"}}}
{"molecule": "CC1(CCCCN2CCC(c3c[nH]c4cnccc34)CC2)C(=O)Nc2cccc(Cl)c21", "note": "(stereo not shown) [TCMDC-141177]", "values": [{"measurement": "Average inhibition female (%)", "setting": "[1]; [3]", "value": 23.5, "unit": "%"}, {"measurement": "% inhibition female (individual replicates) R1", "setting": "[1]; [3]", "value": 22.1, "unit": "%"}, {"measurement": "% inhibition female (individual replicates) R3", "setting": "[1]; [3]", "value": 12.9, "unit": "%"}, {"measurement": "% inhibition female (individual replicates) R4", "setting": "[1]; [3]", "value": 47.7, "unit": "%"}, {"measurement": "HitlevelF", "setting": "[1]; [4]", "value": 0}, {"measurement": "Average inhibition male (%)", "setting": "[2]; [3]", "value": 42.5, "unit": "%"}, {"measurement": "% inhibition male (individual replicates) R1", "setting": "[2]; [3]", "value": 42.7, "unit": "%"}, {"measurement": "% inhibition male (individual replicates) R3", "setting": "[2]; [3]", "value": 28.4, "unit": "%"}, {"measurement": "% inhibition male (individual replicates) R4", "setting": "[2]; [3]", "value": 48.2, "unit": "%"}, {"measurement": "HitlevelM", "setting": "[2]; [5]", "value": 1}]}
{"molecule": "COc1ccc2ncc(F)c(CCN3CCC(NCc4cc(F)c5c(c4)OCCO5)CC3)c2n1.Cl", "note": "[TCMDC-135849]", "values": [{"measurement": "% inhibition female (individual replicates) R1", "setting": "[1]; [6]", "value": 9.2, "unit": "%"}, {"measurement": "% inhibition female (individual replicates) R3", "setting": "[1]; [6]", "value": -25.5, "unit": "%"}, {"measurement": "% inhibition female (individual replicates) R4", "setting": "[1]; [6]", "value": 10.6, "unit": "%"}, {"measurement": "Average inhibition female (%)", "setting": "[1]; [7]", "value": -0.168, "unit": "%"}, {"measurement": "% inhibition male (individual replicates) R1", "setting": "[2]; [6]", "value": -15.0, "unit": "%"}, {"measurement": "% inhibition male (individual replicates) R3", "setting": "[2]; [6]", "value": -30.0, "unit": "%"}, {"measurement": "% inhibition male (individual replicates) R4", "setting": "[2]; [6]", "value": -21.8, "unit": "%"}, {"measurement": "Average inhibition male (%)", "setting": "[2]; [7]", "value": -22.8, "unit": "%"}]}
{"molecule": "CC1(C)N=C(NC(=O)c2ccc([N+](=O)[O-])cc2)N=C(N)N1OCc1ccc2ccccc2c1", "note": "[TCMDC-131580]", "values": [{"measurement": "% inhibition female (individual replicates) R1", "setting": "[1]; [6]", "value": 12.5, "unit": "%"}, {"measurement": "% inhibition female (individual replicates) R3", "setting": "[1]; [6]", "value": -19.7, "unit": "%"}, {"measurement": "% inhibition female (individual replicates) R4", "setting": "[1]; [6]", "value": 0.76, "unit": "%"}, {"measurement": "Average inhibition female (%)", "setting": "[1]; [7]", "value": 3.4, "unit": "%"}, {"measurement": "% inhibition male (individual replicates) R1", "setting": "[2]; [6]", "value": 21.0, "unit": "%"}, {"measurement": "% inhibition male (individual replicates) R3", "setting": "[2]; [6]", "value": -18.0, "unit": "%"}, {"measurement": "% inhibition male (individual replicates) R4", "setting": "[2]; [6]", "value": -29.1, "unit": "%"}, {"measurement": "Average inhibition male (%)", "setting": "[2]; [7]", "value": -7.9, "unit": "%"}]}
{"molecule": "C[C@@H](CNc1ccnc(Nc2ccc3[nH]c(=O)[nH]c3c2)n1)c1ccccc1", "note": "[TCMDC-136803]", "values": [{"measurement": "% inhibition female (individual replicates) R1", "setting": "[1]; [6]", "value": 0.6, "unit": "%"}, {"measurement": "% inhibition female (individual replicates) R3", "setting": "[1]; [6]", "value": -4.3, "unit": "%"}, {"measurement": "% inhibition female (individual replicates) R4", "setting": "[1]; [6]", "value": 9.5, "unit": "%"}, {"measurement": "Average inhibition female (%)", "setting": "[1]; [7]", "value": 0.458, "unit": "%"}, {"measurement": "% inhibition male (individual replicates) R1", "setting": "[2]; [6]", "value": -12.9, "unit": "%"}, {"measurement": "% inhibition male (individual replicates) R4", "setting": "[2]; [6]", "value": -10.1, "unit": "%"}, {"measurement": "Average inhibition male (%)", "setting": "[2]; [7]", "value": -9.4, "unit": "%"}]}
{"molecule": "O=C(O)C(F)(F)F.c1cc(CNCCN2CCNCC2)cc(-c2cccc(-c3nc4ccccc4[nH]3)c2)c1", "note": "[TCMDC-132859]", "values": [{"measurement": "Average inhibition female (%)", "setting": "[1]; [3]", "value": 17.2, "unit": "%"}, {"measurement": "% inhibition female (individual replicates) R1", "setting": "[1]; [3]", "value": 18.5, "unit": "%"}, {"measurement": "% inhibition female (individual replicates) R3", "setting": "[1]; [3]", "value": -13.9, "unit": "%"}, {"measurement": "% inhibition female (individual replicates) R4", "setting": "[1]; [3]", "value": 47.2, "unit": "%"}, {"measurement": "HitlevelF", "setting": "[1]; [8]", "value": 0}, {"measurement": "Average inhibition male (%)", "setting": "[2]; [3]", "value": 12.0, "unit": "%"}, {"measurement": "% inhibition male (individual replicates) R1", "setting": "[2]; [3]", "value": 10.9, "unit": "%"}, {"measurement": "% inhibition male (individual replicates) R3", "setting": "[2]; [3]", "value": -9.7, "unit": "%"}, {"measurement": "% inhibition male (individual replicates) R4", "setting": "[2]; [3]", "value": 24.9, "unit": "%"}, {"measurement": "HitlevelM", "setting": "[2]; [9]", "value": 0}, {"measurement": "Activity", "setting": "[2]; [7]", "value": 0}]}
{"molecule": "CCc1cc2c3c(N)nc(N)nc3ccc2n1C(C)(C)C", "note": "[TCMDC-137306]", "values": [{"measurement": "% inhibition female (individual replicates) R1", "setting": "[1]; [6]", "value": -1.8, "unit": "%"}, {"measurement": "% inhibition female (individual replicates) R3", "setting": "[1]; [6]", "value": -28.9, "unit": "%"}, {"measurement": "% inhibition female (individual replicates) R4", "setting": "[1]; [6]", "value": 1.8, "unit": "%"}, {"measurement": "Average inhibition female (%)", "setting": "[1]; [7]", "value": -7.8, "unit": "%"}, {"measurement": "% inhibition male (individual replicates) R1", "setting": "[2]; [6]", "value": 25.5, "unit": "%"}, {"measurement": "% inhibition male (individual replicates) R3", "setting": "[2]; [6]", "value": 27.4, "unit": "%"}, {"measurement": "% inhibition male (individual replicates) R4", "setting": "[2]; [6]", "value": 15.6, "unit": "%"}, {"measurement": "Average inhibition male (%)", "setting": "[2]; [7]", "value": 21.0, "unit": "%"}]}
{"molecule": "Cc1ccc(-c2nc3cc(NC(=O)c4ccc([N+](=O)[O-])o4)ccc3o2)cc1Cl", "note": "[TCMDC-123657]", "values": [{"measurement": "Average inhibition female (%)", "setting": "[1]; [3]", "value": 15.9, "unit": "%"}, {"measurement": "% inhibition female (individual replicates) R1", "setting": "[1]; [3]", "value": 10.9, "unit": "%"}, {"measurement": "% inhibition female (individual replicates) R3", "setting": "[1]; [3]", "value": 11.0, "unit": "%"}, {"measurement": "% inhibition female (individual replicates) R4", "setting": "[1]; [3]", "value": 33.8, "unit": "%"}, {"measurement": "HitlevelF", "setting": "[1]; [8]", "value": 0}, {"measurement": "Average inhibition male (%)", "setting": "[2]; [3]", "value": 5.4, "unit": "%"}, {"measurement": "% inhibition male (individual replicates) R1", "setting": "[2]; [3]", "value": 3.2, "unit": "%"}, {"measurement": "% inhibition male (individual replicates) R3", "setting": "[2]; [3]", "value": -3.8, "unit": "%"}, {"measurement": "% inhibition male (individual replicates) R4", "setting": "[2]; [3]", "value": 12.9, "unit": "%"}, {"measurement": "HitlevelM", "setting": "[2]; [9]", "value": 0}, {"measurement": "Activity", "setting": "[2]; [7]", "value": 0}]}
{"molecule": "CCc1c(CCNCCCCCCNCCc2ccc([N+](=O)[O-])cc2)ccc(OC)c1OC.Cl", "note": "[TCMDC-132066]", "values": [{"measurement": "Average inhibition female (%)", "setting": "[1]; [3]", "value": 24.7, "unit": "%"}, {"measurement": "% inhibition female (individual replicates) R1", "setting": "[1]; [3]", "value": 23.1, "unit": "%"}, {"measurement": "% inhibition female (individual replicates) R3", "setting": "[1]; [3]", "value": 5.5, "unit": "%"}, {"measurement": "% inhibition female (individual replicates) R4", "setting": "[1]; [3]", "value": 16.3, "unit": "%"}, {"measurement": "HitlevelF", "setting": "[1]; [4]", "value": 1}, {"measurement": "Average inhibition male (%)", "setting": "[2]; [3]", "value": 38.6, "unit": "%"}, {"measurement": "% inhibition male (individual replicates) R1", "setting": "[2]; [3]", "value": 42.7, "unit": "%"}, {"measurement": "% inhibition male (individual replicates) R3", "setting": "[2]; [3]", "value": 1.6, "unit": "%"}, {"measurement": "% inhibition male (individual replicates) R4", "setting": "[2]; [3]", "value": 56.2, "unit": "%"}, {"measurement": "HitlevelM", "setting": "[2]; [5]", "value": 2}]}
